Publication PMC8601123, “Drug delivery, biodistribution and anti-EGFR activity: theragnostic nanoparticles for simultaneous in vivo delivery of tyrosine kinase inhibitors and kinase activity biosensors” (Nanoscale, 2021)
Each block holds one compound with its values, some of them ahead of it.

What was measured:
EGFR [1] = target: T1, EGFR (Homo sapiens, UniProt P00533); test: Western blot of EGFR phosphorylation, time course of inhibitory effect; type: cell-based; conditions: for duration of EGFR inhibition: western blot (Fig. 2d)
T1 construct: endogenous in cells; host or cells: LIM1215 colon cancer cells
Text: (§1) We then prepared variant lipopolyplex formulations, based on CLA1 and including the EGFR inhibitor K16Cys-S-S-[PEG6-IPQA] 1 (Table 1). […] For efficient perfusion through the leaky endothelial cells of the tumor, lipopolyplexes must be <150 nm in diameter. […] We also carried out in vitro studies to check that the disulfide linker between K16Cys and PEG-IPQA was labile under pseudo-intracellular conditions (GSH/GSSG, HEPES, pH 7.2).[66] […] Next, we assessed the effectiveness of K16Cys-S-S-[PEG6-IPQA] 1 as an inhibitor of EGFR activity as a free therapeutic or within lipopolyplexes by utilizing FRET-FLIM and validating our results by western blot (WB) techniques. Activation of EGFR in cells treated with EGF (natural ligand for EGFR) was evident by decreasing lifetime of green fluorescent protein (GFP) in Picchu-X biosensor (Fig. 2c) and by appearance of phosphorylated EGFR band in WB image (Fig. 2d). In both cases pre-treatment with MeO-[PEG6-IPQA]
Fig. 2 Effect of different lipopolyplex formulations and drug loading on the expression of EGFR in targeted cells and inhibition of its activity upon stimulation with EGF. LIM1215 cells transfected with different lipopolyplexes without inhibitor (CLA1–4, NAE1–4, NGE1–4) (a) or with increasing amount of inhibitor per particle (F1LA1–3, F2LA1–3) (b) 24 h after seeding.
LIM1215, DiFi, SW48 and DLD1 colon cancer cell lines (independently validated by STR DNA fingerprinting at The Institute of Cancer Research (London, UK), were maintained in RPMI-1640 (Life Technologies Ltd). Antibodies: anti-EGFR (clone D38B1) anti-p-Y1173-EGFR (clone 53A5) were from Cell Signaling Technology Ltd.

LIM1215 xenografts = test: In vivo radioactive organ biodistribution in LIM1215 xenograft mice; set-up: species or system CD1 nu/nu mice
Experimental: Fig. 3 In vivo radioactive organ biodistribution data presented in % Injected Dose per gram (%ID g^−1) for MeO-[PEG6-[^125I]-IPQA] 8 (black columns) and F1LA1 K16Cys-SMal-[PEG3-[^125I]-IPQA] 9 lipopolyplex (grey columns) 3, 6 and 24 h after injection. The tumor %ID g^−1 at 3, 6 and 24 h for both tracers is represented on a separate graph.
All animal studies were approved by the University College London Biological Services Ethical Review Committee and licensed under the UK Home Office regulations and the Guidance for the Operation of Animals (Scientific Procedures) Act 1986 (Home Office, London, United Kingdom). 12 female 6–8 weeks old CD1 nu/nu mice (Charles River Laboratories, UK) were injected subcutaneously in the right flank with 2 × 10^6 LIM1215 cells in 100 μL PBS. Once palpable tumors were measure in three orthogonal directions using the following equation: length × height × width × π/6. Once tumors had reached approximately 70–100 mm^3 mice were randomly divided into 2 groups; group 1 received an intravenous injection of 0.5Mbq MeO-[PEG6-[^125I]-IPQA] 8 (n = 6), group 2 received an intravenous injection of 0.5MBq F1LA1 K16Cys-SMal-[PEG3-[^125I]-IPQA]-lipopolyplex (n = 6). Mice were then culled at 3, 6 and 24 hours (n = 2 per time point) and all organs were taken, weighed and ^125I uptake quantified using a gamma counter (Wizard, PerkinElmer) to obtain % Injected dose per gram (%ID g^−1).

EGFR [2] = test: EGFR activation by EGF in SW48 cells, western blot; type: cell-based; conditions: serum-free 24 h, 1 h pre-treatment, EGF 100 ng/mL 5 min, western blot (Fig. S1)
Experimental: To test the ability of lipopolyplexes to deliver pDNA and inhibitor we used LIM1215 colon cancer cells. […] As a control, to check the response of the colorectal cancer cell lines to this class of TKI, we prepared an analogue of 1, with the disulfide-linked peptide replaced with an –OMe group. TKI analogue MeO-[PEG6-IPQA]
Optimization of EGFR inhibitor delivery to target cells
Figure S1. Effect of MeO-[PEG6-IPQA] (8) on EGFR activation by EGF in SW48 cells.
Cells were seeded in 6-well plate, 48 h later media was changed for media without serum. 24 h later cells were pre-treated with MeO-[PEG6-IPQA] (8) at indicated concentrations for 1 h followed by treatment with EGF (100 ng/mL) for 5 min. Cells were lysed and subjected to western blot analysis for activation/phosphorylation of EGFR and downstream signalling […]
(1 picture or pasted object on this page, not shown here)

EGFR [3] = target: T1, EGFR; test: FRET-FLIM analysis of EGF-induced EGFR activity with Picchu-X biosensor in cells; type: cell-based; set-up: inhibition of EGF-induced EGFR activity (FRET-FLIM), difference between the groups: dose or concentration left out as unconfirmed
Text: as §1, with “Activation of EGFR in cells treated with EGF (natural ligand for EGFR) was evident by decreasing lifetime of green fluorescent protein (GFP) in Picchu-X biosensor (Fig. 2c) and by appearance of phosphorylated EGFR band in WB image (Fig. 2d). In both cases pre-treatment with MeO-[PEG6-IPQA]” left out
A10 μM solution of the non-radiolabelled F1LA1 K16Cys-S-S-[PEG6-IPQA] lipopolyplex was applied to cells at 60% confluence in 96-well-plates. […] Time-domain fluorescence lifetime images were acquired via time correlated single photon counting (TCSPC) at a resolution of 256 by 256 pixels, with 256 time bins and 100 frames accumulated over 300 seconds, via excitation and emission filters suitable for the detection of GFP fluorescence (Excitation filter: Semrock FF01-470/22 nm; Beam Splitter: Edmund 48NT-392 30R/70 T; Emission filter: Semrock FF01-510/20 nm). […]

[4] = cited from earlier work
Text: This approach also allowed us to further investigate the basis for the enhanced circulation and better tumour selectivity afforded by nanoparticle delivery of small molecule therapeutics. […] This phenomenon will need further investigation of potential differences in trafficking of the drug within the cell post-uptake, both in terms of the subcellular compartments involved and kinetics of intracellu ...

[5] = Cleavage of the disulfide linker under pseudo-intracellular conditions; type: physicochemical; conditions: reducing pseudo-intracellular conditions, GSH/GSSG, HEPES, pH 7.2 (Fig. S7)
Text: as §1

duration of EGFR inhibition (EGFR [1]; free agent): 24 h
time of highest tumor uptake (LIM1215 xenografts; i.v. 0.5 MBq, time points 3, 6 and 24 h, gradual reduction over 24 h): 3 h
lifetime of GFP in Picchu-X biosensor after EGF (EGFR [3]; pre-treatment for 1 h, then EGF (Fig. 2c)): remained at baseline levels
Compound: C=CC(=O)Nc1cc2c(Nc3cccc(I)c3)ncnc2cc1OCCOCCOCCOCCOCCOCCOC [Compound 8, MeO-[PEG6-IPQA]]
level of EGFR phosphorylation (EGFR [1]; pre-treatment for 1 h, EGF stimulation, western blot (Fig. 2d, line 8 vs. line 2)): significantly lower than in the sample without inhibitor
organ uptake (LIM1215 xenografts; i.v. 0.5 MBq, 3, 6 and 24 h, 125I gamma counting, %ID g-1 (Fig. 3)): high uptake in gallbladder and intestines at 3 and 6 h
clearance route (LIM1215 xenografts; i.v. 0.5 MBq, 125I gamma counting, n = 2 per time point): rapidly cleared via the hepatobiliary route
inhibition of EGFR activation by EGF (EGFR [2]): potent inhibitor of EGFR activation

Compound: C=CC(=O)Nc1cc2c(Nc3cccc(I)c3)ncnc2cc1OCCOCCOCCOCCOCCOCCF [[^18F]F-PEG6-IPQA]
selectivity for tumour cells [4]: little selectivity for tumour cells
in vivo clearance ([4]; compared with Mo-IPQA): quicker in vivo clearance

duration of EGFR inhibition (EGFR [1]; delivered within lipopolyplexes): up to 48 h
EGFR activity, inhibitor within lipopolyplexes (EGFR [1]; delivered within lipopolyplexes, western blot (Fig. 2d, lines 3-7 vs. line 2)): equally low levels as the free drug
inhibition of EGF-induced EGFR activity (FRET-FLIM), difference between the groups (EGFR [3]; free agent, P = 0.03 (Fig. 2c legend)): statistically significant
Compound: K16Cys-S-S-[PEG6-IPQA] [Compound 1]
time to cleavage of disulfide linkage [5]: ≤ 5 min
